Here are results for 2 molecules from patent publication US8592470B2 (Eisai R&D Management Co., Ltd., priority 2012, dated 2013).

Data set [1] addresses T1, CYP3A4 (Homo sapiens, UniProt P08684).
T1 construct: human hepatic microsomal fraction containing CYP; from tissue; host or cells: human liver microsomes
In words: Competitive CYP inhibition (Method 2), human hepatic microsome. The data set is classed as in vitro ADME. Particulars: midazolam 3 μM, n = 2, read-out: IC50 score, CYP3A4. As for the experimental part:
The inhibition rate was determined from the amounts of model substrate metabolites with and without addition of the test substance at each test substance concentration, and the IC50 value was calculated from the inhibition rate (calculation method in accordance with Xenobiotica, 1999, 29(1), 53-75).

The target of data set [2] is T2, CYP2C19 (Homo sapiens, UniProt P33261).
T2 construct: human hepatic microsomal fraction containing CYP; from tissue; host or cells: human liver microsomes
In words: Time-dependent CYP inhibition (Method 1), human hepatic microsome. The settings on record: 30 min pre-incubation at 37° C., S-mephenytoin, average, n = 2. The data set is classed as in vitro ADME.

The target in data set [3] is T3, CYP2D6 (Homo sapiens, UniProt P10635).
T3 construct: human hepatic microsomal fraction containing CYP; from tissue; host or cells: human liver microsomes
The data set is described as above. The settings on record: 30 min pre-incubation at 37° C., bufuralol, average, n = 2. The data set is classed as in vitro ADME. As for the experimental part: (§1) Competitive inhibition of CYP was also tested as Method 2. […] The test substance was added to an enzyme solution (containing human hepatic microsome (0.2 mg/mL), 100 mM Kpi and 0.1 mM EDTA), and pre-incubated for 30 minutes at 37° C. in the presence of or absence of the coenzyme. The final concentration of the test substance was set at 0.1, 0.2, 0.4, 0.5, 1, 2, 10 or 50 μM. A NADPH generating system (60 mM MgCl2 solution containing 3.6 mM β-NADP^+, 90 mM glucose-6-phosphate and 1 Unit/mL glucose-6-phosphate dehydrogenase, incubated for 5 minutes to generate NADPH) was used as the coenzyme. After pre-incubation, part of the reaction solution was collected, diluted 10 times by mixing with a model substrate solution and the NADPH generating system, and then incubated for 10 minutes at 37° C. An equal amount of a mixed solution of acetonitrile and methanol (1:1, containing 0.05 μM dextrophan or 0.05 μM propranolol as an internal standard) was added to terminate the reaction, and metabolites of the model substrate in the reaction solution were measured by LC-MS/MS. A similar test was also performed with no test substance added as a control test. The ratio relative to the amount of model substrate metabolites in the control test was given as residual activity. The ratio of residual activity in the presence of NADPH relative to residual activity in the absence of NADPH was evaluated, and the ratio of 80% or less was defined “+”, while the ratio of above 80% was defined as “−”. [table]

The target of data set [4] is T4, CYP2C9 (Homo sapiens, UniProt P11712).
T4 construct: human hepatic microsomal fraction containing CYP; from tissue; host or cells: human liver microsomes
The data set is described as above. In kind it is in vitro ADME. The settings on record: 30 min pre-incubation at 37° C., tolbutamide, average, n = 2. The procedure:
as §1

Data set [5] concerns the target T1, CYP3A4. Described as above. Particulars: 30 min pre-incubation at 37° C., midazolam, average, n = 2. The data set is classed as in vitro ADME. As for the experimental part: as §1
For data set [6], the target named is T5, CYP1A2 (Homo sapiens, UniProt P05177).
T5 construct: human hepatic microsomal fraction containing CYP; from tissue; host or cells: human liver microsomes
T5 sequence (P05177 1-516): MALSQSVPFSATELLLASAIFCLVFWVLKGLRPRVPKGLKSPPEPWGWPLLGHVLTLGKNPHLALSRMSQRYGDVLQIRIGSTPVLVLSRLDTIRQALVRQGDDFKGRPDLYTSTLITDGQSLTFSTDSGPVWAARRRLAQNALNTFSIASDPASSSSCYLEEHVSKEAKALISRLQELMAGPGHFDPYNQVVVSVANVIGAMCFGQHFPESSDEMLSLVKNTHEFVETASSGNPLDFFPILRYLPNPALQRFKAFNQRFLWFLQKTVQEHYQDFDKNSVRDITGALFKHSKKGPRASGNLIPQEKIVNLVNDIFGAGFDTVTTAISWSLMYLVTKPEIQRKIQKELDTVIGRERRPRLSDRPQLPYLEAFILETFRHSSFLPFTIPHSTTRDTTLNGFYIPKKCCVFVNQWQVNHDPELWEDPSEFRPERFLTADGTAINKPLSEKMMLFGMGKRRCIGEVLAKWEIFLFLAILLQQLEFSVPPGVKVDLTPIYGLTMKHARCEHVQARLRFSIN
The description is as above. The data set is classed as in vitro ADME. Particulars: 30 min pre-incubation at 37° C., phenacetin, average, n = 2. As for the experimental part: as §1

Data set [7] has as its target T6, endothelin receptor A (EDNRA) (Homo sapiens, UniProt P25101).
T6 construct: The protein coding region of human derived EDNRA (gene number NM_001957.2) was transduced; expressed in transfected cells
T6 sequence (P25101 21-427): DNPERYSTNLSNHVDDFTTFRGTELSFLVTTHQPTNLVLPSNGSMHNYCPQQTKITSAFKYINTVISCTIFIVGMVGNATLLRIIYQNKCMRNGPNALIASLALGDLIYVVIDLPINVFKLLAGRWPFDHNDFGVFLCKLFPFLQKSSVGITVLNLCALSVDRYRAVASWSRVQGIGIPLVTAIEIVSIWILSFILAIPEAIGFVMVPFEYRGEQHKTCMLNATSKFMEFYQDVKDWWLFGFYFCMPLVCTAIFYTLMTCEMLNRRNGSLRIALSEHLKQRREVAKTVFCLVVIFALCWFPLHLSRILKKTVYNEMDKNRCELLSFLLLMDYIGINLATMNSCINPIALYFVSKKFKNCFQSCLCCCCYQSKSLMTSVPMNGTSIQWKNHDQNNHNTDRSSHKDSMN
In words: Suppression of endothelin-induced Ca2+ elevation in EDNRA/293 cells. In kind it is cell-based. The settings on record: 0.03, 0.1 or 0.3 nM endothelin, FIG. 2 and FIG. 3. The source says: The protein coding region of human derived EDNRA (gene number NM_001957.2) was transduced into HEK-293 (Human Embryonic Kidney, ATCC No. CRL-1573) cells with a murine leukemia retrovirus vector, to prepare a cell line stably expressing EDNRA (EDNRA/293 cells). DMEM (Dulbecco's Modified Eagle Medium) supplemented with 10% fetal bovine serum and penicillin and streptomycin was used as the culture medium.
One day before measurement, the EDNRA/293 cells were inoculated on a 384-well plate at 5000 cells/well. On the day of measurement, a fluorescent reagent for calcium measurement (Calcium4, Molecular Device) dissolved in Hanks balanced buffer solution was added to each well, and allowed standing for about 1 hour.
Endothelin, an EDNRA ligand (activator) was applied to the wells not treated with the specimens, and the resulting activation (calcium elevation) reaction was detected by a measuring instrument (FDSS7000, Hamamatsu Photonics) to obtain a dose-dependent activation reaction as shown in FIG. 1. At doses of 1 nM or more, the activation reaction became almost saturated. For this reason, the doses of endothelin used for detection in the suppression reactions below were set at 0.03, 0.1 or 0.3 nM.

Data set [8] concerns the target T3, CYP2D6. The data set can be described thus: Competitive CYP inhibition (Method 2), human hepatic microsome. In kind it is in vitro ADME. The settings on record: bufuralol 10 μM, n = 2, read-out: IC50 score, CYP2D6. As for the experimental part:
(§2) The test substance was added at a final concentration of 1 or 10 μM to an enzyme solution (containing human hepatic microsome (0.2 mg/mL), 100 mM Kpi and 0.1 mM EDTA) containing a model substrate solution, and incubated for 10 minutes at 37° C. in the presence of an NADPH generating system. An equal amount of a mixed solution of acetonitrile and methanol (1:1, containing 0.05 μM dextrophan or 0.05 μM propranolol as an internal standard) was added to terminate the reaction, and metabolites of the model substrate in the reaction solution were measured by LC-MS/MS. A similar test was performed without addition of the test substance as a control test. The inhibition rate was determined from the amounts of model substrate metabolites with and without addition of the test substance at each test substance concentration, and the IC50 value was calculated from the inhibition rate (calculation method in accordance with Xenobiotica, 1999, 29(1), 53-75). […] [table]

Data set [9] deals with T4, CYP2C9. The data set is described as above. The data set is classed as in vitro ADME. The settings on record: human liver microsomes, probe tolbutamide 100 μM, n = 2, read-out: IC50 score, CYP2C9. As for the experimental part: as §2
Data set [10] deals with T5, CYP1A2. The description is as above. The settings on record: phenacetin 10 μM, n = 2, read-out: IC50 score, CYP1A2. The data set is classed as in vitro ADME. As for the experimental part: as §2
Data set [11] concerns the target T2, CYP2C19. Described as above. In kind it is in vitro ADME. Particulars: S-mephenytoin 40 μM, n = 2, read-out: IC50 score, CYP2C19. The procedure:
as §2

Bounds are passed on as bounds.

T4 sequence (P11712 whole entry): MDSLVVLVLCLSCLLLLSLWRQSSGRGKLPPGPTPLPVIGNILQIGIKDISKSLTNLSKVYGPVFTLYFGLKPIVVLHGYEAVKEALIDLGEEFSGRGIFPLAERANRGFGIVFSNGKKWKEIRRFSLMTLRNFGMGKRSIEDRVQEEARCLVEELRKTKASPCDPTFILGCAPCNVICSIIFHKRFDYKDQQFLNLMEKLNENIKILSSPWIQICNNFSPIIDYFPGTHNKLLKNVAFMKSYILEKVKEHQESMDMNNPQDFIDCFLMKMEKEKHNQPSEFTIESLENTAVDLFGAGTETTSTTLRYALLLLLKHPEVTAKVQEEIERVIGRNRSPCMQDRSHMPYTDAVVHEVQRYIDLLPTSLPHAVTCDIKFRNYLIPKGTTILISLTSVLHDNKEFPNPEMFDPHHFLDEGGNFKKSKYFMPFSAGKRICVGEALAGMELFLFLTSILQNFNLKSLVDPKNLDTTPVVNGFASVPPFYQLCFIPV
T1 sequence (P08684 whole entry): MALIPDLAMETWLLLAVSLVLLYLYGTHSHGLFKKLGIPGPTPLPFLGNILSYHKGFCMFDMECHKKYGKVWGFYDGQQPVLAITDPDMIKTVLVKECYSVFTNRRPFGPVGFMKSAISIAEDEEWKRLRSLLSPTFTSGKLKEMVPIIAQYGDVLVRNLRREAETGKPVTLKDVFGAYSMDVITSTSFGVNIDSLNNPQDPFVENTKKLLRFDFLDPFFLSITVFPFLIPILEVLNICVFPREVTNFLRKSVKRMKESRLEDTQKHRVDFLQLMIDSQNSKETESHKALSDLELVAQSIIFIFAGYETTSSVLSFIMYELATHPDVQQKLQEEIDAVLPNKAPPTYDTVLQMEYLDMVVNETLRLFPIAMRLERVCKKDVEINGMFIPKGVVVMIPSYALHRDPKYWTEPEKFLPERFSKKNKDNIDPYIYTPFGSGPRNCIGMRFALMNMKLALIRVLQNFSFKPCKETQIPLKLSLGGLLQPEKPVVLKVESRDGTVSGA
T3 sequence (P10635 whole entry): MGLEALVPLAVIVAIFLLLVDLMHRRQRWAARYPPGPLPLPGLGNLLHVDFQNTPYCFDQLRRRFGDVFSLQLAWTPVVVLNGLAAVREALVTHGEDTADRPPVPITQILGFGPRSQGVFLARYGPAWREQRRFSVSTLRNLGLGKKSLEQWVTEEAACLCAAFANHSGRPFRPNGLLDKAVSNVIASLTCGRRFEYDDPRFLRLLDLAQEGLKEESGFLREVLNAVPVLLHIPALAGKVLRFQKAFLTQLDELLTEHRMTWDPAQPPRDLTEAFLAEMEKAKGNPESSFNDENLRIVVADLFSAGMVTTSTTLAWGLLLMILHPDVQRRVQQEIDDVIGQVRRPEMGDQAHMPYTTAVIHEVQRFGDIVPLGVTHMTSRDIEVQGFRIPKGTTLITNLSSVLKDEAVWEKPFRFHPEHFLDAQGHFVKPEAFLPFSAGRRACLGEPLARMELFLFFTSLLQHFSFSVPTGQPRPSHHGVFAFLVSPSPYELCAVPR
T2 sequence (P33261 whole entry): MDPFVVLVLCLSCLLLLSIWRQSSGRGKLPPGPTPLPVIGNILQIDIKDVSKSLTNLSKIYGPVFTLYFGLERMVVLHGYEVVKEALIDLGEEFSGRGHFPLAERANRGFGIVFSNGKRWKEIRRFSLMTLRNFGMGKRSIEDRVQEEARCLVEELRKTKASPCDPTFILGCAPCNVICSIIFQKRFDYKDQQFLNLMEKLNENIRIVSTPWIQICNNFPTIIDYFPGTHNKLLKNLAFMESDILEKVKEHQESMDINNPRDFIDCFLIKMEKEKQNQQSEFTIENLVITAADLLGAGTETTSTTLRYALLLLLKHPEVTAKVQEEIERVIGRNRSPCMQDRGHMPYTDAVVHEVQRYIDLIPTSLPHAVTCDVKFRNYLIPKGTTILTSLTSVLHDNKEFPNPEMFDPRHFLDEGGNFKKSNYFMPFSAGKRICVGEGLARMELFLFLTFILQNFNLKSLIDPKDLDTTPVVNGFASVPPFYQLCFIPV

Regarding `Cc1cc2c(cc1CC(=O)c1sccc1S(=O)(=O)Nc1onc(C)c1Cl)COC2` [Example 1, N-(4-chloro-3-methyl-1,2-oxazol-5-yl)-2-[2-(6-methyl-1,3-dihydro-2-benzofuran-5-yl)acetyl]thiophene-3-sulfonamide], the IC50 in [1], in [8], in [10] and in [11] was above 10 µM in each case. The “Ratio of residual CYP2C19 activity in presence of NADPH relative to absence of NADPH” value in data set [2] (test substance 10 μM) and in [2] (test substance 50 μM) was “− (the ratio of above 80% was defined as “−”)” throughout. For the same molecule, the “Ratio of residual CYP2D6 activity in presence of NADPH relative to absence of NADPH” value in data set [3] (test substance 10 μM) and in data set [3] (test substance 50 μM) was “− (the ratio of above 80% was defined as “−”)” in each case. Further, the “Ratio of residual CYP2C9 activity in presence of NADPH relative to absence of NADPH” value in data set [4] (test substance 10 μM) and in [4] (test substance 50 μM) was “− (the ratio of above 80% was defined as “−”)” each time. In addition, the “Ratio of residual CYP3A4 activity in presence of NADPH relative to absence of NADPH” value in [5] (test substance 10 μM) was “− (the ratio of above 80% was defined as “−”)”; in data set [5] (test substance 50 μM), “+ (the ratio of 80% or less was defined “+”)”. Further, the “Ratio of residual CYP1A2 activity in presence of NADPH relative to absence of NADPH” value in [6] (test substance 10 μM) and in [6] (test substance 50 μM) was “− (the ratio of above 80% was defined as “−”)” each time. In [7], the “Suppression of activation (calcium elevation) reaction by endothelin” value is listed as “suppressed the activation reaction”. Moreover, the concentration for half-maximal inhibition (IC50) at 10 min in data set [9] was below 1 µM.
On to `Cc1cc2c(cc1CC(=O)c1sccc1S(=O)(=O)Nc1onc(C)c1Cl)OCO2` [Sitaxentan, N-(4-chloro-3-methyl-1,2-oxazol-5-yl)-2-[2-(6-methyl-2H-1,3-benzodioxol-5-yl)acetyl]thiophene-3-sulfonamide, reference compound], for which the “Suppression of activation (calcium elevation) reaction by endothelin” value in data set [7] is “suppressed the activation reaction”. The figures for the IC50 in data set [8], in data set [10] and in data set [11] were above 10 µM, above 10 µM and 1 to 10 µM, respectively. Further, the IC50 at 10 min in [9] was below 1 µM.
